# Patent publication US20260265238A1, “COMPOUNDS AND PHARMACEUTICAL COMPOSITIONS THAT DEGRADE SWI/SNF-RELATED MATRIX-ASSOCIATED ACTIN-DEPENDENT REGULATOR OF CHROMATIN SUBFAMILY A” (Plexium, Inc., priority 2023, published 2026)
# Assays:
# [1] = target: T1, SMARCA2-HiBiT HeLa cells (protein which is expressed from the SMARCA2 gene) (Homo sapiens, UniProt P51531); assay: SMARCA2 degradation assay (HiBiT-fusion HeLa cell line, 24 h, luminescence); format: cell-based
# T1 construct: protein which is expressed from the SMARCA2 and SMARCA4 genes; host or cells: HeLa (SMARCA2-HiBiT engineered line)
# T1 sequence (P51531 whole entry, the tested form may be a part): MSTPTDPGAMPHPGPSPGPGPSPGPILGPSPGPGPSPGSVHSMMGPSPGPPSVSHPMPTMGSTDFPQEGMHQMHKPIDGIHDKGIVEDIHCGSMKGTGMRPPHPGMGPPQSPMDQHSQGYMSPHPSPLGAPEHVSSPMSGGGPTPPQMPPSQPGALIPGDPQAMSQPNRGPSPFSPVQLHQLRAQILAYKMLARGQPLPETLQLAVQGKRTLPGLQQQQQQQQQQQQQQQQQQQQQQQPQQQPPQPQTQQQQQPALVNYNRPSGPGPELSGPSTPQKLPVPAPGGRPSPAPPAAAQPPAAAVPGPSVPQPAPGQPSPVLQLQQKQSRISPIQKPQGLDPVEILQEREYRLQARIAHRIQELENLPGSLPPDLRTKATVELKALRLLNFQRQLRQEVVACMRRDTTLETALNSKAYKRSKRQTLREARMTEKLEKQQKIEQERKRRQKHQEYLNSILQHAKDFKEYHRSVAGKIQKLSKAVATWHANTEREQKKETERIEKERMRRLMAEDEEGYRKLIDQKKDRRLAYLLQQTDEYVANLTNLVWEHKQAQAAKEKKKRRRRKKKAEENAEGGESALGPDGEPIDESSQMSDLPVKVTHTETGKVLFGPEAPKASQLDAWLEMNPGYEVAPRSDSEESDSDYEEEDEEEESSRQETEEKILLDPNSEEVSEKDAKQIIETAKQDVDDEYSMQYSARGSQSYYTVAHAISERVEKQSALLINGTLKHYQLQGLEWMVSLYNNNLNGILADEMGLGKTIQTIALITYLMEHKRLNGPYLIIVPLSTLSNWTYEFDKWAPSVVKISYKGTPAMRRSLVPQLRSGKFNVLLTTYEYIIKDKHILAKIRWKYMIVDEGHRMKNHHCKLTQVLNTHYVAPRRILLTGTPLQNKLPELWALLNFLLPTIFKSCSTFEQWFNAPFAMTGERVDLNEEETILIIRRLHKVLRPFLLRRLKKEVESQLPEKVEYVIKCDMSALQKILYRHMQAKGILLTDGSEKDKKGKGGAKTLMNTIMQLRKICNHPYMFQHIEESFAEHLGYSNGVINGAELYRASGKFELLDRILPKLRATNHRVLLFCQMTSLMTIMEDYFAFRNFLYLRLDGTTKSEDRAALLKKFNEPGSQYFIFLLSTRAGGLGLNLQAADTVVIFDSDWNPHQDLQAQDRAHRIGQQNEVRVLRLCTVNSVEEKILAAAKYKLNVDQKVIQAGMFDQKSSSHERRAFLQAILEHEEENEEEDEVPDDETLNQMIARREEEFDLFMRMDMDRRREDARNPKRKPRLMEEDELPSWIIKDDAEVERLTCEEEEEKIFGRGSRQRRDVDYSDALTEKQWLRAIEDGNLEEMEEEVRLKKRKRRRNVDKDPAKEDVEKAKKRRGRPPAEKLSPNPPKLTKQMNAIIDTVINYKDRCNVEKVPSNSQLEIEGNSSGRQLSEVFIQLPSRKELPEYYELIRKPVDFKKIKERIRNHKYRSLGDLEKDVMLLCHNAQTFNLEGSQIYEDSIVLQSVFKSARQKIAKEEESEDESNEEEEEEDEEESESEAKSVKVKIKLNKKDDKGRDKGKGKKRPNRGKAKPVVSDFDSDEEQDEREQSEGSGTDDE
# In short: (§1)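 HiBiT-fusion HeLa lines, 8,000 cells/well, overnight attachment; cpd 10-pt series (typically 10 μM–300 pM), 24 h, 37° C. Lysis with LgBiT + HiBiT substrate, 10 min shaking at RT, luminescence read. DC50 from dose-response fit; % degradation also scored at 1 μM.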
# [2] = target: T2, SMARCA4-HiBiT HeLa cells (protein which is expressed from the SMARCA4 gene) (Homo sapiens, UniProt P51532); assay: SMARCA4 degradation assay (HiBiT-fusion HeLa cell line, 24 h, luminescence); format: cell-based
# T2 construct: protein which is expressed from the SMARCA2 and SMARCA4 genes; host or cells: HeLa (SMARCA4-HiBiT engineered line)
# T2 sequence (P51532 whole entry, the tested form may be a part): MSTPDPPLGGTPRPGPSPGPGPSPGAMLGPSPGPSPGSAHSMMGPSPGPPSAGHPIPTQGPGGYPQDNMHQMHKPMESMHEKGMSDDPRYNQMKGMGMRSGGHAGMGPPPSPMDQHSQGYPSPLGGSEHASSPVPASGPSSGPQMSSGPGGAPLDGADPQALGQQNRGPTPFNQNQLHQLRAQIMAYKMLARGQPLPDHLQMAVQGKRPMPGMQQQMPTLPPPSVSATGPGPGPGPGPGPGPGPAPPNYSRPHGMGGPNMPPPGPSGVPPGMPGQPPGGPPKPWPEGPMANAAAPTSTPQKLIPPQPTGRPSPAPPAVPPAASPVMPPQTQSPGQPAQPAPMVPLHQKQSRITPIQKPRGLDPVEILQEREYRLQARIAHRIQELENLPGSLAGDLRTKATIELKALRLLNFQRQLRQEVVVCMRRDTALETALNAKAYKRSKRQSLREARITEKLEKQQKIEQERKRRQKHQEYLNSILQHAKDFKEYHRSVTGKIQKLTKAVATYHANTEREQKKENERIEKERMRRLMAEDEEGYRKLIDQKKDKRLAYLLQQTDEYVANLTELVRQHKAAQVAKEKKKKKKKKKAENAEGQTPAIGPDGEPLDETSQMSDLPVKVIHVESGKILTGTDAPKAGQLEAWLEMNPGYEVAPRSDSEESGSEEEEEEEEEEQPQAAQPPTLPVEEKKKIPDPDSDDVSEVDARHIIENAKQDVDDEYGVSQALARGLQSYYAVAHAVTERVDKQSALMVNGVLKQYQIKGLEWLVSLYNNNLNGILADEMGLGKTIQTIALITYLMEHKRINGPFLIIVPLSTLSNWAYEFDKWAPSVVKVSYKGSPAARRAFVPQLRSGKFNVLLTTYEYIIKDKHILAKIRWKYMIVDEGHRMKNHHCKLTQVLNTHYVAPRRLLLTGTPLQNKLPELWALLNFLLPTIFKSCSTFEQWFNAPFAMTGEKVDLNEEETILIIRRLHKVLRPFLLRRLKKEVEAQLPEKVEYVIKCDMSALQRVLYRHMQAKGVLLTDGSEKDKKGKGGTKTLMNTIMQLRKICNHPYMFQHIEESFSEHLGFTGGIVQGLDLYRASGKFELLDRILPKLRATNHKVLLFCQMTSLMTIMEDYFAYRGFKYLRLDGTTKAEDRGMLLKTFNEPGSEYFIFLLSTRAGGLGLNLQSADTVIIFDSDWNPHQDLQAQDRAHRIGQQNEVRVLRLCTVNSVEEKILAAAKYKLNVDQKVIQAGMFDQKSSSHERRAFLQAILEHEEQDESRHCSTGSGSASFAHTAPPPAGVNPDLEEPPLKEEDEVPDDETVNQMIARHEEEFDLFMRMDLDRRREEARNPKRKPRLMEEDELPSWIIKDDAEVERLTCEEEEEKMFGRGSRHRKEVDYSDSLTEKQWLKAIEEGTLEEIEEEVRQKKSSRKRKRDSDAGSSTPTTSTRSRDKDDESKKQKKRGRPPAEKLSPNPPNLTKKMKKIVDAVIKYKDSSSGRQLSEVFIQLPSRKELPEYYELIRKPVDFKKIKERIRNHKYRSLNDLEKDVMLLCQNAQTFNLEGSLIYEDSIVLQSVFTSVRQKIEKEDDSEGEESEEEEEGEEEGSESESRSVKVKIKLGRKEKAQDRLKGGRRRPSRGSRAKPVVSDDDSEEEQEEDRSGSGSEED
# In short: as §1
compound,measurement,setting,value
"C[C@@H]1CCN(c2cc(-c3ccccc3O)nnc2N)CCN1c1ccnc(C#CCN2CCOCC2)c1 [Compound P-426, 0-(5-{(R)-5-methyl-4-[2-(3-morpholino-1-propynyl)-4-pyridyl]-1,4-diazepan-1-yl}-6-amino-3-pyridazinyl)phenol]",DC50,[1],50 to 500 nM
same,SMARCA2 % Degradation @ 1 μM,[1]; 1 μM,++ (++=30-70%)
same,DC50,[2],50 to 500 nM
same,inhibition at 1 µM,[2]; 1 μM,30 to 70%
"CC1CN(c2ccnc(C#CCN)n2)CCN(c2cc(-c3ccccc3O)nnc2N)C1 (stereo not drawn) [Compound P-39, 2-(6-amino-5-(4-(2-(3-aminoprop-1-yn-1-yl)pyrimidin-4-yl)-6-methyl-1,4-diazepan-1-yl)pyridazin-3-yl)phenol]",DC50,[1],500 to 5000 nM
same,SMARCA2 % Degradation @ 1 μM,[1]; @ 1 μM,+ (+=<30%)
same,DC50,[2],500 to 5000 nM
same,inhibition at 1 µM,[2]; @ 1 μM,< 30%
"C[C@@H]1CCN(c2cc(-c3ccccc3O)nnc2N)CCN1c1nc(C#CCN(C)C)ncc1F [Compound P-226, o-{5-[(R)-4-{2-[3-(dimethylamino)-1-propynyl]-5-fluoro-4-pyrimidinyl}-5-mcthyl-1,4-diazcpan-1-yl]-6-amino-3-pyridazinyl}phenol]",DC50,[1],< 50 nM
same,SMARCA2 % Degradation @ 1 μM,[1]; @ 1 μM,++ (++=30-70%)
same,DC50,[2],< 50 nM
same,inhibition at 1 µM,[2]; @ 1 μM,< 30%
"C[C@H]1COC[C@H](C)N1CC#Cc1nccc(N2CCCN(c3cc(-c4ccccc4O)nnc3N)CC2)n1 [Compound P-305, 0-{5-[4-(2-{3-[(3S,5S)-3,5-dimethyl-4-morpholinyl]-1-propynyl}-4-pyrimidinyl)-1,4-diazepan-1-yl]-6-amino-3-pyridazinyl}phenol]",DC50,[1],50 to 500 nM
same,SMARCA2 % Degradation @ 1 μM,[1]; @ 1 μM,++ (++=30-70%)
same,DC50,[2],50 to 500 nM
same,inhibition at 1 µM,[2]; @ 1 μM,30 to 70%
"C[C@@H]1CCC(=O)N1CC#Cc1ncc(F)c(N2CCN(c3cc(-c4ccccc4O)nnc3N)CC[C@H]2C)n1 [Compound P-175, (R)-1-[3-(4-{(R)-4-[3-amino-6-(o-hydroxyphenyl)-4-pyridazinyl]-7-methyl-1,4-diazepan-1-yl}-5-fluoro-2-pyrimidinyl)-2-propynyl]-5-methyl-2-pyrrolidinone]",DC50,[1],50 to 500 nM
same,SMARCA2 % Degradation @ 1 μM,[1]; @ 1 μM,++ (++=30-70%)
same,DC50,[2],50 to 500 nM
same,inhibition at 1 µM,[2]; @ 1 μM,< 30%
"C[C@@H]1CN(c2ccnc(C#CCNC(=O)c3cc4ncccn4n3)n2)CCN1c1cc(-c2ccccc2O)nnc1N [Compound P-49, (R)-N-(3-(4-(4-(3-amino-6-(2-hydroxyphenyl)pyridazin-4-yl)-3-methylpiperazin-1-yl)pyrimidin-2-yl)prop-2-yn-1-yl)pyrazolo[1,5-a]pyrimidine-2-carboxamide]",DC50,[1],> 5000 nM
same,SMARCA2 % Degradation @ 1 μM,[1]; @ 1 μM,+ (+=<30%)
same,DC50,[2],500 to 5000 nM
same,inhibition at 1 µM,[2]; @ 1 μM,< 30%
"Nc1nnc(-c2ccccc2O)cc1N1CCN(c2ccnc(C#CCNC(=O)c3cc4ncccn4n3)n2)CC(F)C1 (stereo not drawn) [Compound P-44, N-(3-(4-(4-(3-amino-6-(2-hydroxyphenyl)pyridazin-4-yl)-6-fluoro-1,4-diazepan-1-yl)pyrimidin-2-yl)prop-2-yn-1-yl)pyrazolo[1,5-a]pyrimidine-2-carboxamide]",DC50,[1],500 to 5000 nM
same,SMARCA2 % Degradation @ 1 μM,[1]; @ 1 μM,++ (++=30-70%)
same,DC50,[2],500 to 5000 nM
same,inhibition at 1 µM,[2]; @ 1 μM,30 to 70%
"CC1CN(c2ccnc(C#CCN)n2)CCCN1c1cc(-c2ccccc2O)nnc1N (stereo not drawn) [Compound P-40, 2-(6-amino-5-(4-(2-(3-aminoprop-1-yn-1-yl)pyrimidin-4-yl)-2-methyl-1,4-diazepan-1-yl)pyridazin-3-yl)phenol]",DC50,[1],500 to 5000 nM
same,SMARCA2 % Degradation @ 1 μM,[1]; @ 1 μM,+ (+=<30%)
same,DC50,[2],500 to 5000 nM
same,inhibition at 1 µM,[2]; @ 1 μM,< 30%
"NC/C=C/c1nccc(N2CCCN(c3cc(-c4ccccc4O)nnc3N)CC2)n1 [Compound P-113, (E)-2-(6-amino-5-(4-(2-(3-aminoprop-1-en-1-yl)pyrimidin-4-yl)-1,4-diazepan-1-yl)pyridazin-3-yl)phenol]",DC50,[1],50 to 500 nM
same,SMARCA2 % Degradation @ 1 μM,[1]; @ 1 μM,++ (++=30-70%)
same,DC50,[2],500 to 5000 nM
same,inhibition at 1 µM,[2]; @ 1 μM,< 30%
